As a reminder, the CC50 is the concentration at which the toxic effect on the cells reaches its halfway point. What is called inhibition is the drop in the measured response relative to a control, in per cent.

This note sets out measurements from patent publication US9540343B2 (Gilead Sciences, Inc., priority 2011, dated 2017).

A value given as a limit tells only on which side of the number the result lay.

A short description of one series: in vitro. The note with it: human, uninfected MT-4 cells, CC50 (nM), same protocol as Test A, CellTiter-Glo. An outline of the steps:
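Cytoprotection read-out: CellTiter-Glo chemiluminescence after 5 days at 37 °C of HIV-IIIb-infected MT-4 cells (m.o.i. 0.003) with compound in 10-point 3-fold dilutions, quadruplicate, 10% FBS. Cytotoxicity (CC50) measured identically without virus.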

In a further series the test system is HIV-IIIb. Description: Test A: Antiviral assay in MT4 cells. In kind it is cell-based, HIV-1. Conditions: Human immunodeficiency virus 1, IIIB, MT4, 120 h, read-out: % inhibition at 2 μM, percent inhibition of virus-induced cell killing, from dose response curve at 2 uM drug; MT-4 cells infected with HIV-IIIb, 5 days, CellTiter-Glo. Background: ATP-based viability assays read luminescence as a measure of living cells.

As to `COC1CN(C(=O)Cc2c(C)n(CC(=O)N[C@@H](Cc3cc(F)cc(F)c3)c3ncccc3-c3ccc(F)c(C(N)=O)c3)c3ccccc23)C1` [Example 579D, (S)-5-(2-(2-(3,5-difluorophenyl)-1-(2-(3-(2-(3-methoxyazetidin-1-yl)-2-oxoethyl)-2-methyl-1H-indol-1-yl)acetamido)ethyl)pyridin-3-yl)-2-fluorobenzamide], the half-maximal cytotoxic concentration (CC50) at 5 days in the series “in vitro” was greater than 53200 nM. Moreover, the inhibition at 2 µM with HIV-IIIb turned out to be 18%.

In the series “in vitro”, `NS(=O)(=O)c1cc(-c2cccnc2[C@H](Cc2cc(F)cc(F)c2)NC(=O)Cc2c[nH]c3ccc(F)cc23)ccc1F` [Example 580F, (S)—N-(2-(3,5-difluorophenyl)-1-(3-(4-fluoro-3-sulfamoylphenyl)pyridin-2-yl)ethyl)-2-(5-fluoro-1H-indol-3-yl)acetamide] had a CC50 at 5 days of 32600 nM. Also, the inhibition at 2 µM with HIV-IIIb came to 95%.

In turn, `Cc1cc2cn(CC(=O)N[C@@H](Cc3cc(F)cc(F)c3)c3ncccc3-c3ccc(F)c(C(N)=O)c3)nc2cc1C` [Example 583, (S)-5-(2-(2-(3,5-difluorophenyl)-1-(2-(5,6-dimethyl-2H-indazol-2-yl)acetamido)ethyl)pyridin-3-yl)-2-fluorobenzamide] returned a CC50 at 5 days in “in vitro” of 23200 nM. Besides, the inhibition at 2 µM with HIV-IIIb came to 28%.

In the case of `NCc1ccc2c(CC(=O)N[C@@H](Cc3cc(F)cc(F)c3)c3ncccc3-c3cccc(C(N)=O)c3)c[nH]c2c1` [Example 584, (S)-3-(2-(1-(2-(6-(aminomethyl)-1H-indol-3-yl)acetamido)-2-(3,5-difluorophenyl)ethyl)pyridin-3-yl)benzamide], the CC50 at 5 days in the series “in vitro” was determined as 7250 nM. For the same compound, the inhibition at 2 µM with HIV-IIIb was 93%.

`NC(=O)c1cc(-c2cccnc2[C@H](Cc2cc(F)cc(F)c2)NC(=O)Cn2ccc3cc(Cl)ccc32)ccc1F` [Example 585, (S)-5-(2-(1-(2-(5-chloro-1H-indol-1-yl)acetamido)-2-(3,5-difluorophenyl)ethyl)pyridin-3-yl)-2-fluorobenzamide]: the 50% cytotoxic concentration (CC50) at 5 days in the series “in vitro” turned out to be 13700 nM. Besides, the inhibition at 2 µM with HIV-IIIb is 58%.

The compound `CCC(C(=O)N[C@@H](Cc1cc(F)cc(F)c1)c1ncccc1-c1ccc(F)c(C(N)=O)c1)n1cnc2cc(C)c(C)cc21` (stereo partly drawn) [Example 587C, 5-(2-((1S)-2-(3,5-difluorophenyl)-1-(2-(5,6-dimethyl-1H-benzo[d]imidazol-1-yl)butanamido)ethyl)pyridin-3-yl)-2-fluorobenzamide] gave a CC50 at 5 days in “in vitro” of 23000 nM. In addition, the inhibition at 2 µM in the series on HIV-IIIb came to 93%.

The compound `NC(=O)c1cc(-c2cccnc2[C@H](Cc2cc(F)cc(F)c2)NC(=O)Cn2ncc3ccc(O)cc32)ccc1F` [Example 588, (S)-5-(2-(2-(3,5-difluorophenyl)-1-(2-(6-hydroxy-1H-indazol-1-yl)acetamido)ethyl)pyridin-3-yl)-2-fluorobenzamide] returned a CC50 at 5 days in “in vitro” of 21500 nM. The inhibition at 2 µM in the series on HIV-IIIb turned out to be 2%.

`NC(=O)c1cc(-c2cccnc2[C@H](Cc2cc(F)cc(F)c2)NC(=O)Cn2ccc3ccc(C(F)(F)F)cc32)ccc1F` [Example 591, (S)-5-(2-(2-(3,5-difluorophenyl)-1-(2-(6-(trifluoromethyl)-1H-indol-1-yl)acetamido)ethyl)pyridin-3-yl)-2-fluorobenzamide] returned a CC50 at 5 days in “in vitro” of 14200 nM. In addition, in the series with HIV-IIIb, the inhibition at 2 µM turned out to be 15%.

As to `NC(=O)c1cc(-c2cccnc2[C@H](Cc2cc(F)cc(F)c2)NC(=O)Cc2ccccc2)ccc1F` [Example 592], in “in vitro”, the CC50 at 5 days is greater than 53200 nM. In addition, in the series on HIV-IIIb, the inhibition at 2 µM came to 8%.

`Cc1cc2[nH]cc(CC(=O)N[C@@H](Cc3cc(F)cc(F)c3)c3ncccc3-c3cccc(C(N)=O)c3)c2cc1O` [Example 593, (S)-3-(2-(2-(3,5-difluorophenyl)-1-(2-(5-hydroxy-6-methyl-1H-indol-3-yl)acetamido)ethyl)pyridin-3-yl)benzamide] registered a CC50 at 5 days in “in vitro” greater than 53000 nM. Also, in the series on HIV-IIIb, the inhibition at 2 µM was 52%.
